Source: article PMC5697638, “Identification of a Potent Phosphoinositide 3‐Kinase Pan Inhibitor Displaying a Strategic Carboxylic Acid Group and Development of Its Prodrugs” (Chemmedchem, 2017)
pIC50: −log10 of the molar value.

Assays:
[1] = system: PI3Ks, all of the isoforms; parameters: method as in PMID 8106507; conditions: read-out: IC50 against all of the isoforms; cited from earlier work
PI3Ks = test: PI3K inhibitory activity of copper salts; type: biochemical; conditions: up to 10 μM
Description: With this procedure in hand, we proceeded with our combinatorial strategy. The azides were selected to introduce both electron‐donating and electron‐withdrawing groups, hydrogen‐bond donors and acceptors, and ionizable functions. They were already present in our database or prepared according to standard procedures. […] Then, the 1,2,3‐triazoles were evaluated for their ability to inhibit PI3K isoforms of class I at a fixed concentration of 1 μM, as shown in Table 1. The synthesized 1,2,3‐triazoles along with their ability to inhibit PI3K isoforms at 1 μM concentration are reported. Possibly, a minute concentration of copper salts might have precipitated with the products and might have been retained in the purified compounds, and so, we also evaluated the PI3K inhibitory activity of these salts.

Row | Compound | pIC50 [1] | inhibition of PI3Ks (PI3Ks)
1 | O=c1cc(N2CCOCC2)oc2c(-c3ccccc3)cccc12 [LY294002] | ~6.30 | 
2 | CC(=O)[O-].CC(=O)[O-].[Cu+2] [copper(II) acetate] |  | Neither copper(II) acetate nor copper(I) iodide displayed significant inhibition of PI3Ks up to 10 μM
3 | [Cu+].[I-] [copper(I) iodide] |  | Neither copper(II) acetate nor copper(I) iodide displayed significant inhibition of PI3Ks up to 10 μM
